# Values of other authors in US11141456B2, “Therapeutic compositions including frataxin, lactoferrin, and mitochondrial energy generating enzymes, and uses thereof” (Stealth BioTherapeutics Corp, priority 2014, dated 2021).
# Test system: several mammalian cell types
# Details: energy-independent manner; cited from earlier work
substance,measurement,value
"2′,6′-Dmt-D-Arg-Phe-Lys-NH2",penetration of the plasma membrane,readily penetrates the plasma membrane
